From patent publication US20250197368A1 (priority 2020, published 2025)
pKi: −log10 of the molar value.

Legend:
human α2β3γ2 GABAARs = test: In vitro electrophysiological recording assay (automated patch-clamp), α2-GABAAR relative efficacy; format: cell-based; conditions: % efficacy normalised to diazepam; GABA EC10-20; concentration generally >= 100 times Ki
Outline: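 Automated whole-cell patch clamp at 20-22° C on L(tk^−) cells (QPatch, −65 mV) or HEK293 cells (SyncroPatch, −80 mV) stably expressing the human receptor. Compound pre-applied ≥1 min, then co-applied with GABA EC10-20; % potentiation of leak-corrected peak current, normalised to diazepam, typically at ≥100× Ki.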

[1] = target: human α2β3γ2 GABAARs (benzodiazepine site) (Homo sapiens (Human), UniProt P18507+P47869); test: In vitro radioligand binding assay ([3H]Ro15-1788 displacement), α2-GABAAR Ki
Outline: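 Membranes from dexamethasone-induced mouse L(tk−) cells stably expressing the human receptor were incubated 1 h at 4° C with 4 nM [3H]Ro15-1788 and graded compound; nonspecific binding with 1-3 μM TP003. Filter-bound radioactivity counted; Ki from IC50 by Cheng-Prusoff using the measured radioligand Kd.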

Sequence of human α2β3γ2 GABAARs (benzodiazepine site) (P47869 29-451): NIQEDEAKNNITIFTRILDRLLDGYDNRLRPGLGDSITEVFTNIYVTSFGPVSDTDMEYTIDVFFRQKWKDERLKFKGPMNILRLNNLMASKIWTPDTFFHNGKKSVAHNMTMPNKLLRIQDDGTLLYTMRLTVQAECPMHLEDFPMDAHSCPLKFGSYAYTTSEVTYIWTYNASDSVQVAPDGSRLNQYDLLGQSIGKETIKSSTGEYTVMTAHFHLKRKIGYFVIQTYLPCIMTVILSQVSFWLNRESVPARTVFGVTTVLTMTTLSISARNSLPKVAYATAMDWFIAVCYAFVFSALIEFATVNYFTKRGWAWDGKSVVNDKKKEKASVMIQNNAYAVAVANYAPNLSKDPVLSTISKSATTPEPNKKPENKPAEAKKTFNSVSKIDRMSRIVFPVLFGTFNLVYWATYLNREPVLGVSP
Sequence of human α2β3γ2 GABAARs (benzodiazepine site) (P28472 26-473 partner): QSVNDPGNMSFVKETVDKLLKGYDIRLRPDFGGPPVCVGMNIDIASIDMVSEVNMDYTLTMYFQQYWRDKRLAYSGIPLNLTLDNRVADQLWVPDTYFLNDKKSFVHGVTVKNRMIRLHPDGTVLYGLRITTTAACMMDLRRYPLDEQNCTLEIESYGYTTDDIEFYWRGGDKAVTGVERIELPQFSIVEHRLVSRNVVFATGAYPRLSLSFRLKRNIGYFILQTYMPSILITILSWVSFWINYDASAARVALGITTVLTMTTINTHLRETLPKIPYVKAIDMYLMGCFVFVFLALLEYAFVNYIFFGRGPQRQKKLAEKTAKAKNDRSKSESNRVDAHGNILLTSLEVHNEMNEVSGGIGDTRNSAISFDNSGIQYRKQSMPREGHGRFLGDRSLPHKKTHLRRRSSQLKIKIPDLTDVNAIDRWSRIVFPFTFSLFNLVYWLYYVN
Sequence of human α2β3γ2 GABAARs (benzodiazepine site) (P18507 40-475): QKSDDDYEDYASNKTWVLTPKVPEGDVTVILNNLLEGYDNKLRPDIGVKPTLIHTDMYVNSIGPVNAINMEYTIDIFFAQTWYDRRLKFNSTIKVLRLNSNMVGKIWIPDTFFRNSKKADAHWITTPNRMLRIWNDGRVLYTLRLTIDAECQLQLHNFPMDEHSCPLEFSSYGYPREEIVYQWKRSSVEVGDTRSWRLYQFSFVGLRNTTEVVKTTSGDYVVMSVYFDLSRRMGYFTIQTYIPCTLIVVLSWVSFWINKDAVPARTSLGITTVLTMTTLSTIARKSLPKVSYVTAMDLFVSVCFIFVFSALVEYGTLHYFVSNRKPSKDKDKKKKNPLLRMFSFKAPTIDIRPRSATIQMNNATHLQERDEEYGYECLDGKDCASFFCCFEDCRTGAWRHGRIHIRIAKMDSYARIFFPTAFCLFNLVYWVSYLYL

Compound	α2-GABAAR Relative Efficacy (vs. Diazepam) (human α2β3γ2 GABAARs)	pKi [1]
CCCNC(=O)c1c(N)c2cccc(-c3cn(C)nc3C)c2n(CC)c1=O [Example 83, 4-Amino-8-(1,3-dimethylpyrazol-4-yl)-1-ethyl-2-oxo-N-propyl-quinoline-3-carboxamide]	0.40	7.80
CCCNC(=O)c1c(N)c2cccc(-c3cc(OCc4ccccn4)ccc3C)c2[nH]c1=O [Example 86, 4-Amino-8-[2-methyl-5-(2-pyridylmethoxy)phenyl]-2-oxo-N-propyl-1H-quinoline-3-carboxamide]	0.28	8.77
CCCNC(=O)c1c(N)c2cccc(-c3cccc(OCc4ccccn4)c3)c2[nH]c1=O [Example 87, 4-Amino-2-oxo-N-propyl-8-[3-(2-pyridylmethoxy)phenyl]-1H-quinoline-3-carboxamide]	0.24	8.75
CCCNC(=O)c1c(N)c2cccc(-c3cc(OCc4cccc(OC)n4)ccc3F)c2[nH]c1=O [Example 89, 4-Amino-8-[2-fluoro-5-[(6-methoxy-2-pyridyl)methoxy]phenyl]-2-oxo-N-propyl-1H-quinoline-3-carboxamide]	0.3	8.81
CCCNC(=O)c1c(N)c2cccc(-c3cc(OCc4cccc(C(F)(F)F)n4)ccc3F)c2[nH]c1=O [Example 90, 4-Amino-8-[2-fluoro-5-[[6-(trifluoromethyl)-2-pyridyl]methoxy]phenyl]-2-oxo-N-propyl-1H-quinoline-3-carboxamide]	0.18	8.52
CCCNC(=O)c1c(N)c2cccc(-c3cc(OCc4ccc(F)cn4)ccc3C)c2[nH]c1=O [Example 93]	0.34	8.79
CCCNC(=O)c1c(N)c2cccc(-c3cccc(OCc4ccc(F)cn4)c3)c2[nH]c1=O [Example 94, 4-Amino-8-[3-[(5-fluoro-2-pyridyl)methoxy]phenyl]-2-oxo-N-propyl-1H-quinoline-3-carboxamide]	0.28	8.62
CCCNC(=O)c1c(N)c2cccc(-c3cc(OCc4ccc(C)cn4)ccc3F)c2[nH]c1=O [Example 95, 4-Amino-8-[2-fluoro-5-[(5-methyl-2-pyridyl)methoxy]phenyl]-2-oxo-N-propyl-1H-quinoline-3-carboxamide]	0.22	9.36
CCCNC(=O)c1c(N)c2cccc(-c3cc(OCc4ccc(OC)cn4)ccc3F)c2[nH]c1=O [Example 96, 4-Amino-8-[2-fluoro-5-[(5-methoxy-2-pyridyl)methoxy]phenyl]-2-oxo-N-propyl-1H-quinoline-3-carboxamide]	0.24	9.04
CCCNC(=O)c1c(N)c2cccc(-c3cc(OCc4ccc(Cl)cn4)ccc3F)c2[nH]c1=O [Example 97, 4-Amino-8-[5-[(5-chloro-2-pyridyl)methoxy]-2-fluoro-phenyl]-2-oxo-N-propyl-1H-quinoline-3-carboxamide]	0.25	9.14
CCCNC(=O)c1c(N)c2cccc(-c3cc(OCc4ccc(C(F)(F)F)cn4)ccc3F)c2[nH]c1=O [Example 98, 4-Amino-8-[2-fluoro-5-[[5-(trifluoromethyl)-2-pyridyl]methoxy]phenyl]-2-oxo-N-propyl-1H-quinoline-3-carboxamide]	0.29	9.21
CCCNC(=O)c1c(N)c2cccc(-c3cc(OCc4ccc(C#N)cn4)ccc3F)c2[nH]c1=O [Example 99, 4-Amino-8-[5-[(5-cyano-2-pyridyl)methoxy]-2-fluoro-phenyl]-2-oxo-N-propyl-1H-quinoline-3-carboxamide]	0.28	9.62
CCCNC(=O)c1c(N)c2cccc(-c3cc(OCc4cc(OC)ccn4)ccc3F)c2[nH]c1=O [Example 100, 4-Amino-8-[2-fluoro-5-[(4-methoxy-2-pyridyl)methoxy]phenyl]-2-oxo-N-propyl-1H-quinoline-3-carboxamide]	0.18	10.15
CCCNC(=O)c1c(N)c2cccc(-c3cc(OCc4cc(C#N)ccn4)ccc3F)c2[nH]c1=O [Example 101, 4-Amino-8-[5-[(4-cyano-2-pyridyl)methoxy]-2-fluoro-phenyl]-2-oxo-N-propyl-1H-quinoline-3-carboxamide]	0.31	9.72
CCCNC(=O)c1c(N)c2cccc(-c3cc(OCc4cc(CO)ccn4)ccc3F)c2[nH]c1=O [Example 102, 4-Amino-8-(2-fluoro-5-((4-(hydroxymethyl)pyridin-2-yl)methoxy)phenyl)-2-oxo-N-propyl-1,2-dihydroquinoline-3-carboxamide]	0.33	9.15
CCCNC(=O)c1c(N)c2cccc(-c3cc(OCc4ncccc4C)ccc3F)c2[nH]c1=O [Example 103, 4-Amino-8-[2-fluoro-5-[(3-methyl-2-pyridyl)methoxy]phenyl]-2-oxo-N-propyl-1H-quinoline-3-carboxamide]	0.37	8.77
CCCNC(=O)c1c(N)c2cccc(-c3cc(COc4ccccn4)ncc3F)c2[nH]c1=O [Example 104, 4-Amino-8-(5-fluoro-2-((pyridin-2-yloxy)methyl)pyridin-4-yl)-2-oxo-N-propyl-1,2-dihydroquinoline-3-carboxamide]	0.27	8.68
CCCNC(=O)c1c(N)c2cccc(-c3cc(OCc4cccnn4)ccc3F)c2[nH]c1=O [Example 105, 4-Amino-8-[2-fluoro-5-(pyridazin-3-ylmethoxy)phenyl]-2-oxo-N-propyl-1H-quinoline-3-carboxamide]	0.19	9.68
CCCNC(=O)c1c(N)c2cccc(-c3cc(OCc4ccnnc4)ccc3F)c2[nH]c1=O [Example 106, 4-Amino-8-[2-fluoro-5-(pyridazin-4-ylmethoxy)phenyl]-2-oxo-N-propyl-1H-quinoline-3-carboxamide]	0.22	9.39
CCCNC(=O)c1c(N)c2cccc(-c3cc(OCc4cncnc4)ccc3F)c2[nH]c1=O [Example 107, 4-Amino-8-[2-fluoro-5-(pyrimidin-5-ylmethoxy)phenyl]-2-oxo-N-propyl-1H-quinoline-3-carboxamide]	0.17	9.70
CCCNC(=O)c1c(N)c2cccc(-c3cc(OCc4cccnc4)ccc3F)c2[nH]c1=O [Example 108, 4-Amino-8-[2-fluoro-5-(3-pyridylmethoxy)phenyl]-2-oxo-N-propyl-1H-quinoline-3-carboxamide]	0.32	9.41
CCCNC(=O)c1c(N)c2cccc(-c3cc(OCc4cccnc4C#N)ccc3F)c2[nH]c1=O [Example 109, 4-Amino-8-[5-[(2-cyano-3-pyridyl)methoxy]-2-fluoro-phenyl]-2-oxo-N-propyl-1H-quinoline-3-carboxamide]	0.21	9.77
CCCNC(=O)c1c(N)c2cccc(-c3cc(COc4ccc(C)nc4)ccc3F)c2[nH]c1=O [Example 112, 4-Amino-8-[2-fluoro-5-[(6-methyl-3-pyridyl)oxymethyl]phenyl]-2-oxo-N-propyl-1H-quinoline-3-carboxamide]	0.11	9.24
CCCNC(=O)c1c(N)c2cccc(-c3cc(OCc4ccncc4)ccc3F)c2[nH]c1=O [Example 113, 4-Amino-8-[2-fluoro-5-(4-pyridylmethoxy)phenyl]-2-oxo-N-propyl-1H-quinoline-3-carboxamide]	0.24	9.92
CCCNC(=O)c1c(N)c2cccc(-c3cc(OCc4ccc(F)cc4C#N)ccc3F)c2[nH]c1=O [Example 114, 4-Amino-8-[5-[(2-cyano-4-fluoro-phenyl)methoxy]-2-fluoro-phenyl]-2-oxo-N-propyl-1H-quinoline-3-carboxamide]	0.38	9.14
CCCNC(=O)c1c(N)c2cccc(-c3cc(OCc4ccc(C#N)cc4OC)ccc3F)c2[nH]c1=O [Example 115, 4-Amino-8-[5-[(4-cyano-2-methoxy-phenyl)methoxy]-2-fluoro-phenyl]-2-oxo-N-propyl-1H-quinoline-3-carboxamide]	0.34	8.70
CCCNC(=O)c1c(N)c2cccc(-c3cc(OCc4ccoc4)ccc3F)c2[nH]c1=O [Example 116, 4-Amino-8-(2-fluoro-5-(furan-3-ylmethoxy)phenyl)-2-oxo-N-propyl-1,2-dihydroquinoline-3-carboxamide]	0.42	8.93
CCCNC(=O)c1c(N)c2cccc(-c3cc(OCc4scnc4C)ccc3F)c2[nH]c1=O [Example 117, 4-Amino-8-[2-fluoro-5-[(4-methylthiazol-5-yl)methoxy]phenyl]-2-oxo-N-propyl-1H-quinoline-3-carboxamide]	0.23	8.80
CCCNC(=O)c1c(N)c2cccc(-c3cc(OCc4nc(C)cs4)ccc3F)c2[nH]c1=O [Example 118, 4-Amino-8-[2-fluoro-5-[(4-methylthiazol-2-yl)methoxy]phenyl]-2-oxo-N-propyl-1H-quinoline-3-carboxamide]	0.29	9.30
CCCNC(=O)c1c(N)c2cccc(-c3cc(OCc4cscn4)ccc3F)c2[nH]c1=O [Example 119, 4-Amino-8-(2-fluoro-5-(thiazol-4-ylmethoxy)phenyl)-2-oxo-N-propyl-1,2-dihydroquinoline-3-carboxamide]	0.38	9.51
